In patent US10597388B2, “Pyridazinone herbicides” (FMC CORPORATION, priority 2014, dated 2020):

Key:
Assay type in all cases: in vivo
[1] = test system: blackgrass (Alopecurus myosuroides); experiment: Test A greenhouse herbicide test, postemergence
Summary of the method: (§1)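 Pot-grown plants (loam soil/sand blend), 2–10 cm tall at the one- to two-leaf stage, received postemergence sprays of formulated test chemical. After about 10 d in the greenhouse, injury was rated visually against untreated controls on a 0 (no effect) to 100 (complete control) scale.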

[2] = test system: galium (catchweed bedstraw, Galium aparine); experiment: Test A greenhouse herbicide test, postemergence
Summary of the method: as §1

soybean (Glycine max) = experiment: Test C greenhouse herbicide test, pre- and postemergence
Summary of the method: (§2)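 Seeds sown in loam–sand blend treated preemergence; plants in peat-based medium sprayed postemergence at 2–18 cm (1- to 4-leaf stage); chemicals in non-phytotoxic solvent with surfactant. Greenhouse 13–15 d, then visual rating versus controls on 0–100 scale (0 no effect, 100 complete control).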

[3] = test system: blackgrass (Alopecurus myosuroides); experiment: as above
Summary of the method: as §2

[4] = test system: nutsedge, yellow (yellow nutsedge, Cyperus esculentus); experiment: as above
Summary of the method: as §2

[5] = test system: barnyardgrass (Echinochloa crus-galli); experiment: as above
Summary of the method: as §2

[6] = test system: galium (catchweed bedstraw, Galium aparine); experiment: as above
Summary of the method: as §2

[7] = test system: ryegrass, Italian (Italian ryegrass, Lolium multiflorum); experiment: as above
Summary of the method: as §2

[8] = test system: pigweed (Amaranthus retroflexus); experiment: as above
Summary of the method: as §2

[9] = test system: ragweed (common ragweed, Ambrosia elatior); experiment: as above
Summary of the method: as §2

[10] = test system: velvetleaf (Abutilon theophrasti); experiment: as above
Summary of the method: as §2

[11] = test system: chickweed (common chickweed, Stellaria media); experiment: Test C greenhouse herbicide test, postemergence
Summary of the method: (§3)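 Greenhouse postemergence spray on plants 2–18 cm tall; response judged visually after 13–15 d relative to untreated controls using a 0 (none) to 100 (full control) scale.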

[12] = test system: oat, wild (wild oat, Avena fatua); experiment: Test C greenhouse herbicide test, postemergence
Summary of the method: as §3

kochia (Kochia scoparia) = experiment: Test C greenhouse herbicide test, postemergence
Summary of the method: as §3

[13] = 125 g ai/ha, 0 to 100 scale where 0 is no effect and 100 is complete control
[14] = 500 g ai/ha, 0 to 100 scale, 0 is no effect, 100 is complete control
[15] = Postemergence, 31 g ai/ha, 0 to 100 scale (0 no effect, 100 complete control)
[16] = Postemergence, 125 g ai/ha, scale 0 to 100, 0 is no effect, 100 is complete control
[17] = Postemergence, 250 g ai/ha, scale 0 to 100, 0 no effect, 100 complete control, 13 to 15 d
[18] = Preemergence, 31 g ai/ha, scale 0 to 100, 0 is no effect, 100 is complete control
[19] = Preemergence, 62 g ai/ha, scale 0 to 100, 0 is no effect, 100 is complete control
[20] = Preemergence, 125 g ai/ha, scale 0 to 100, 0 is no effect, 100 is complete control
[21] = Preemergence, 250 g ai/ha, scale 0 to 100, 0 no effect, 100 complete control
[22] = postemergence, 62 g ai/ha, scale 0 to 100, 0 no effect, 100 complete control

SMILES: Cc1nn(C)c(=O)c(-c2ccc(F)c3ccccc23)c1O [Compound 41]
- Plant response rating, Blackgrass [1, 13]: 70
- Blackgrass plant response rating [1, 14]: 90
- Plant response rating, Galium [2, 13]: 80
- Galium plant response rating [2, 14]: 100
- Soybean plant response rating (soybean (Glycine max); [15]): 15
- Plant response rating, Soybean (soybean (Glycine max); [16]): 20
- Plant response rating, Soybean (soybean (Glycine max); [17]): 15
- Plant response rating, Soybean (soybean (Glycine max); [18]): 0
- Plant response rating, Soybean (soybean (Glycine max); [19]): 20
- Plant response rating, Soybean (soybean (Glycine max); [20]): 50
- Soybean plant response rating (soybean (Glycine max); [21]): 55
- Soybean plant response rating (soybean (Glycine max); [22]): 15
- Blackgrass plant response rating [3, 15]: 30
- Plant response rating, Blackgrass [3, 16]: 50
- Plant response rating, Blackgrass [3, 17]: 60
- Plant response rating, Blackgrass [3, 18]: 70
- Plant response rating, Blackgrass [3, 19]: 80
- Plant response rating, Blackgrass [3, 20]: 85
- Blackgrass plant response rating [3, 21]: 90
- Blackgrass plant response rating [3, 22]: 35
- Nutsedge, Yellow plant response rating [4, 15]: 65
- Plant response rating, Nutsedge, Yellow [4, 16]: 65
- Plant response rating, Nutsedge, Yellow [4, 17]: 80
- Plant response rating, Nutsedge, Yellow [4, 18]: 60
- Plant response rating, Nutsedge, Yellow [4, 19]: 75
- Plant response rating, Nutsedge, Yellow [4, 20]: 75
- Nutsedge, Yellow plant response rating [4, 21]: 80
- Nutsedge, Yellow plant response rating [4, 22]: 65
- Barnyardgrass plant response rating [5, 15]: 25
- Plant response rating, Barnyardgrass [5, 16]: 40
- Plant response rating, Barnyardgrass [5, 17]: 60
- Plant response rating, Barnyardgrass [5, 18]: 10
- Plant response rating, Barnyardgrass [5, 19]: 40
- Plant response rating, Barnyardgrass [5, 20]: 85
- Barnyardgrass plant response rating [5, 21]: 95
- Barnyardgrass plant response rating [5, 22]: 35
- Galium plant response rating [6, 15]: 100
- Plant response rating, Galium [6, 16]: 100
- Plant response rating, Galium [6, 17]: 100
- Plant response rating, Galium [6, 18]: 90
- Plant response rating, Galium [6, 19]: 100
- Plant response rating, Galium [6, 20]: 98
- Galium plant response rating [6, 21]: 98
- Galium plant response rating [6, 22]: 100
- Ryegrass, Italian plant response rating [7, 15]: 80
- Plant response rating, Ryegrass, Italian [7, 16]: 90
- Plant response rating, Ryegrass, Italian [7, 17]: 90
- Plant response rating, Ryegrass, Italian [7, 18]: 95
- Plant response rating, Ryegrass, Italian [7, 19]: 95
- Plant response rating, Ryegrass, Italian [7, 20]: 95
- Ryegrass, Italian plant response rating [7, 21]: 95
- Ryegrass, Italian plant response rating [7, 22]: 90
- Pigweed plant response rating [8, 15]: 65
- Plant response rating, Pigweed [8, 16]: 75
- Plant response rating, Pigweed [8, 17]: 95
- Plant response rating, Pigweed [8, 18]: 75
- Plant response rating, Pigweed [8, 19]: 100
- Plant response rating, Pigweed [8, 20]: 100
- Pigweed plant response rating [8, 21]: 100
- Pigweed plant response rating [8, 22]: 75
- Ragweed plant response rating [9, 15]: 70
- Plant response rating, Ragweed [9, 16]: 95
- Plant response rating, Ragweed [9, 17]: 100
- Plant response rating, Ragweed [9, 18]: 85
- Plant response rating, Ragweed [9, 19]: 85
- Plant response rating, Ragweed [9, 20]: 95
- Ragweed plant response rating [9, 21]: 100
- Ragweed plant response rating [9, 22]: 85
- Velvetleaf plant response rating [10, 15]: 30
- Plant response rating, Velvetleaf [10, 16]: 85
- Plant response rating, Velvetleaf [10, 17]: 90
- Plant response rating, Velvetleaf [10, 18]: 85
- Plant response rating, Velvetleaf [10, 19]: 90
- Plant response rating, Velvetleaf [10, 20]: 95
- Velvetleaf plant response rating [10, 21]: 98
- Velvetleaf plant response rating [10, 22]: 65
- Chickweed plant response rating [11, 15]: 95
- Plant response rating, Chickweed [11, 16]: 90
- Plant response rating, Chickweed [11, 17]: 100
- Chickweed plant response rating [11, 22]: 95
- Oat, Wild plant response rating [12, 15]: 55
- Plant response rating, Oat, Wild [12, 16]: 90
- Plant response rating, Oat, Wild [12, 17]: 95
- Oat, Wild plant response rating [12, 22]: 90
- Kochia plant response rating (kochia (Kochia scoparia); [15]): 100
- Plant response rating, Kochia (kochia (Kochia scoparia); [16]): 100
- Plant response rating, Kochia (kochia (Kochia scoparia); [17]): 100
- Kochia plant response rating (kochia (Kochia scoparia); [22]): 100
